molecular target: T1, Adrenergic receptor alpha-2 (Rattus norvegicus, UniProt P22086+P19328+P22909); test: Displacement of [3H]clonidine from Sprague-Dawley rat cortex adrenergic alpha 2 receptor
T1 sequence (P22086 whole entry): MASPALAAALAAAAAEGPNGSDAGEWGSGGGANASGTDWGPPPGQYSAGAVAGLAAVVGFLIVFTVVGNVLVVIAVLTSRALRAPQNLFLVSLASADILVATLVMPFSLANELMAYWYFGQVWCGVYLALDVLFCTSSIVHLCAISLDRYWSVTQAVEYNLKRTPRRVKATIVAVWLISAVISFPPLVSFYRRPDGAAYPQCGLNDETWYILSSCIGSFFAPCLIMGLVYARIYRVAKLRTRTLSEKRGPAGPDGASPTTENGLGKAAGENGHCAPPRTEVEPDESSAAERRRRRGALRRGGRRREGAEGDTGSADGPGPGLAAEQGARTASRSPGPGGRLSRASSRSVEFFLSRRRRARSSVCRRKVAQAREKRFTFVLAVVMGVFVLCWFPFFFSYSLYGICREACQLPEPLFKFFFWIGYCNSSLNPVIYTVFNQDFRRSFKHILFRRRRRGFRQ
T1 sequence (P19328 whole entry): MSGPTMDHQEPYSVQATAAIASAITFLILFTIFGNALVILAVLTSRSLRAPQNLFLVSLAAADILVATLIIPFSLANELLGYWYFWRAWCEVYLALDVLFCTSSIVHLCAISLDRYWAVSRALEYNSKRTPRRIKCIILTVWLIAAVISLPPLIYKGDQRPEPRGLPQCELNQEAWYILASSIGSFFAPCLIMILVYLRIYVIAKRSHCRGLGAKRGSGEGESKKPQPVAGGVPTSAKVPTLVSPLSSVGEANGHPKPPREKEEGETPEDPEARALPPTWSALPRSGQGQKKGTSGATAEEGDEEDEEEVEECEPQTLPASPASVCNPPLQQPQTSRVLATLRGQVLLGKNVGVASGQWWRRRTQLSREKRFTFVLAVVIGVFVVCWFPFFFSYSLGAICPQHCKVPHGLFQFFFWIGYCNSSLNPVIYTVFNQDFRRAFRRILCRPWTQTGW
T1 sequence (P22909 whole entry): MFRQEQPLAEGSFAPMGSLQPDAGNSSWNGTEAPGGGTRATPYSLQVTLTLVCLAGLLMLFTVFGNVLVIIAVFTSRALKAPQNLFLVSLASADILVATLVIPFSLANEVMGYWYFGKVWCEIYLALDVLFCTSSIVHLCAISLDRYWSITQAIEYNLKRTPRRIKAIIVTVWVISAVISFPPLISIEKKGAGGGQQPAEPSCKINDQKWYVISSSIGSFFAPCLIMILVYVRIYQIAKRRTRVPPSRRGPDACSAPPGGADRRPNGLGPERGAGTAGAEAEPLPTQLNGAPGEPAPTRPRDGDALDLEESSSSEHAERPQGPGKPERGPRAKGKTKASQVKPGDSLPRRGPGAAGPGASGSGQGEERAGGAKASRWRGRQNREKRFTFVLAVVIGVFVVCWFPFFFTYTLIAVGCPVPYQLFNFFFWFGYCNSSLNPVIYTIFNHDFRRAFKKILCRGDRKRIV

Row | SMILES | Ki
1 | O=S(=O)(Cc1ccc(Cl)cc1)c1ccc2c(c1)CNC(CF)C2 (stereo not given) | > 1000 µM
2 | O=S(=O)(CCC(F)(F)F)c1ccc2c(c1)CNC(CF)C2 (stereo not given) | > 1000 µM
3 | O=S(=O)(CC(F)(F)F)c1ccc2c(c1)CNC(CF)C2 (stereo not given) | 740 µM
4 | O=S(=O)(CCCC(F)(F)F)c1ccc2c(c1)CNC(CF)C2 (stereo not given) | > 1000 µM

More lines, now with the values ahead:

Row | Ki | SMILES
5 | 540 µM | CCCCS(=O)(=O)c1ccc2c(c1)CNC(CF)C2 (stereo not given)
6 | 1200 µM | COCCCS(=O)(=O)c1ccc2c(c1)CNC(CF)C2 (stereo not given)
7 | 1100 µM | CCS(=O)(=O)c1ccc2c(c1)CNC(CF)C2 (stereo not given)
8 | 690 µM | CCCS(=O)(=O)c1ccc2c(c1)CNC(CF)C2 (stereo not given)

molecular target: T2, Phenylethanolamine N-methyltransferase (Homo sapiens, UniProt P11086); test: Binding affinity to human PNMT expressed in Escherichia coli by radiochemical assay
T2 sequence (P11086 whole entry): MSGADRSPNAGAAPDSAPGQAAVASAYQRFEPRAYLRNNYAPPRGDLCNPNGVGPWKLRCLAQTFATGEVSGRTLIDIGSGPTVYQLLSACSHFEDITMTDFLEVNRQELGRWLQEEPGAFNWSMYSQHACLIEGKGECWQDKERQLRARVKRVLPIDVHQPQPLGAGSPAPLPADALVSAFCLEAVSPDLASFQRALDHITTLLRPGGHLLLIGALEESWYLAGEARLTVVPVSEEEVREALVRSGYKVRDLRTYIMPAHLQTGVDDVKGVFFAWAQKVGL

Row | SMILES | Ki
9 | c1ccc2c(c1)CCNC2 [1,2,3,4-TETRAHYDROISOQUINOLINE] | 5.8 µM

tested on: not listed separately; test: Selectivity for human PNMT over rat Adrenergic alpha-2 receptor

Row | SMILES | Selectivity ratio
10 | c1ccc2c(c1)CCNC2 [1,2,3,4-TETRAHYDROISOQUINOLINE] | 0.06

— ChEMBL document CHEMBL1149484, “Comparison of the binding of 3-fluoromethyl-7-sulfonyl-1,2,3,4-tetrahydroisoquinolines with their isosteric sulfonamides to the active site of phenylethanolamine N-methyltransferase” (J Med Chem, 2006)
